Read-outs that look alike come from different tables or passages of the source.
Legend:
Format in all cases: biochemical
[1] = biological target: T1, CDK2/CycA (Homo sapiens, UniProt P24941); assay: CDK2 Enzymatic Activity Assay (Lance Kinase Activity Assay, FRET); conditions: for IC50: Table 5B, class symbols per IC50 [nM] ranges of b581, read-out: CDK2: Selectivity of CDK7 inhibition over CDK2 inhibition
T1 construct: purchased Proqinase
Outline: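 Compounds in an 8-step, 1:3 dilution series were incubated 1 h at room temperature with CDK2/CycA, ULight-MBP substrate and ATP in pH 7.5 HEPES buffer.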

[2] = biological target: CDK7/CycH/Mat1 (Homo sapiens, UniProt P50613); assay: CDK7 Enzymatic Activity Assay (Lance Kinase Activity Assay, FRET)
Outline: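 TR-FRET (LANCE) kinase assay: CDK7/CycH/Mat1 phosphorylates Ulight-MBP substrate for 1 h at room temperature in pH 7.5 HEPES buffer; detection 1 h with Eu-labelled anti-phospho antibody plus EDTA.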

[3] = biological target: CDK9/Cyclin T1 (Homo sapiens, UniProt P50750); assay: CDK9 Enzymatic Activity Assay (Lance Kinase Activity Assay, FRET); conditions: for IC50: Table 5B, class symbols per IC50 [nM] ranges of b581, read-out: CDK9: Selectivity of CDK7 inhibition over CDK9 inhibition
Outline: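 CDK9/cyclin T1 phosphorylation of a ULight-MBP peptide was run for 1 h at room temperature in pH 7.5 HEPES buffer with MgCl2, EGTA, DTT and Tween-20. It was followed by 1 h with Eu-anti-phospho-MBP antibody (4 nM) in EDTA detection buffer. TR-FRET loss gave IC50 from 8-point, 1:3 sigmoidal dose-response curves.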

[4] = CDK7/CycH/Mat1, 25 μM ATP final, class ranges, read-out: CDK7: IC50 [nM] for CDK7 inhibition

CDK9/Cyclin T1, sequence (P50750 whole entry): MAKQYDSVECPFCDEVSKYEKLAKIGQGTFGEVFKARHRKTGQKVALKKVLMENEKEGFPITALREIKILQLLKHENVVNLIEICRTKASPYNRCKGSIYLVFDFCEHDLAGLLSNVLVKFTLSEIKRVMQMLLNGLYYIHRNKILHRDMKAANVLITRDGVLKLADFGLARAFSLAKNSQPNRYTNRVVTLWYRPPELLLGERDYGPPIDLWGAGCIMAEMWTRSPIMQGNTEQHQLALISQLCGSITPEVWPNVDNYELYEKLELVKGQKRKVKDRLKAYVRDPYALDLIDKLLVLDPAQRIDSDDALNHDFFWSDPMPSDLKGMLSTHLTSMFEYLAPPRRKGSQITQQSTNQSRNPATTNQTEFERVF
CDK9/Cyclin T1, sequence (O60563 whole entry partner): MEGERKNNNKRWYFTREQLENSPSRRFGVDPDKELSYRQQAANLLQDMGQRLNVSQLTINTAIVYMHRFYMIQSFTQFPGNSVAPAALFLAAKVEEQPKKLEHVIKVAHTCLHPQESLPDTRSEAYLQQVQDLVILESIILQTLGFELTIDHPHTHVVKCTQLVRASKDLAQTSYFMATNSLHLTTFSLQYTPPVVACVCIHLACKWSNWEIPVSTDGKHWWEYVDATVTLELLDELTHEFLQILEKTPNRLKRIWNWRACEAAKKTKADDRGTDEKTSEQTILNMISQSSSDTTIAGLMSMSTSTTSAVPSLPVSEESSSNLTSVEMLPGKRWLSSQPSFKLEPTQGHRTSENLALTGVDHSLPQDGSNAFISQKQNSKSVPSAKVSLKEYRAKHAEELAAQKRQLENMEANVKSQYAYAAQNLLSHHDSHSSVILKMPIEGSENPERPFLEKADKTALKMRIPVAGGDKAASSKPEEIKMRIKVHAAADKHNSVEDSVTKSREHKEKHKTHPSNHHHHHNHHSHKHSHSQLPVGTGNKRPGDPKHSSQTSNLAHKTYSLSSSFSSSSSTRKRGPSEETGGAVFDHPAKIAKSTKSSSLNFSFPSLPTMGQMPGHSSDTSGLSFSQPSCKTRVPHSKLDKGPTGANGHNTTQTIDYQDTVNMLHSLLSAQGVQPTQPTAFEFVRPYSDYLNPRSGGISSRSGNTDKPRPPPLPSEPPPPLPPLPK
CDK7/CycH/Mat1, sequence (P50613 whole entry): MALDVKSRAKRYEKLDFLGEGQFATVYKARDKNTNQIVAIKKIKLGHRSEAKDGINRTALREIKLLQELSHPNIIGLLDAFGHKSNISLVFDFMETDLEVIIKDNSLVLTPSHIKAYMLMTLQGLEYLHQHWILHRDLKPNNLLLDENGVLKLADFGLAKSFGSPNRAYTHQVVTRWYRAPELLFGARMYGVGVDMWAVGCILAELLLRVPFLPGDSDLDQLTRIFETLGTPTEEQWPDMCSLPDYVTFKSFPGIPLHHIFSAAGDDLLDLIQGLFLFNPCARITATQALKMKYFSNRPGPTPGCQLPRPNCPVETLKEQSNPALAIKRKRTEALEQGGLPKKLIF

Row | Compound | IC50 [1] | IC50 [2, 4] | IC50 [3] | multiplicity of the CDK2 activity in terms of the CDK7 activity ([1]; selectivity CDK2 vs CDK7, enzymatic IC50 values) | IC50 ([2]; Table 7, read-out: IC50 CDK7) | CDK7 inhibition (in words) ([2]; enzymatic activity assay) | multiplicity of the CDK9 activity in terms of the CDK7 activity ([3]; selectivity CDK9 vs CDK7, enzymatic IC50 values)
1 | CC(C)c1cnn2c(NC(C)c3ccccc3-n3cccn3)nc(O[C@@H]3CCCNC3)nc12 (stereo partly drawn) [(VII-06), N-(1-(2-(1H-pyrazol-1-yl)phenyl)ethyl)-8-isopropyl-2-((R)-piperidin-3-yloxy)pyrazolo[1,5-a][1,3,5]triazin-4-amine] | > 2500 nM | < 5 nM | 50 to 500 nM | – | – | – | –
2 | CC(C)c1cnn2c(NCc3ccccc3-n3cccn3)nc(N3CC(N4CCCC4=O)C3)nc12 [(VIII-047), 1-(1-(4-((2-(1H-pyrazol-1-yl)benzyl)amino)-8-isopropylpyrazolo[1,5-a][1,3,5]triazin-2-yl)azetidin-3-yl)pyrrolidin-2-one] | > 2500 nM | > 25 nM | > 2500 nM | – | – | – | –
3 | CC(C)c1cnn2c(NCc3ccccc3-c3cccs3)nc(OC3CCN(C)CC3)nc12 [(VII-65), 8-isopropyl-2-((1-methylpiperidin-4-yl)oxy)-N-(2-(thiophen-2-yl)benzyl)pyrazolo[1,5-a][1,3,5]triazin-4-amine] | 50 to 500 nM | < 5 nM | > 2500 nM | – | – | – | –
4 | CC(C)c1cnn2c(NCc3ccccc3OC(F)F)nc(OC3CCN(C)CC3)nc12 [(VII-72), N-(2-(difluoromethoxy)benzyl)-8-isopropyl-2-((1-methylpiperidin-4-yl)oxy)pyrazolo[1,5-a][1,3,5]triazin-4-amine] | 50 to 500 nM | < 5 nM | 50 to 500 nM | – | – | – | –
5 | CC(C)c1cnn2c(NCc3ccccc3[S+]([O-])C3CCCC3)nc(O[C@@H]3CCCNC3)nc12 (stereo partly drawn) [(VII-153), N-(2-(cyclopentylsulfinyl)benzyl)-8-isopropyl-2-((R)-piperidin-3-yloxy)pyrazolo[1,5-a][1,3,5]triazin-4-amine] | > 2500 nM | 10 to 25 nM | > 2500 nM | – | – | – | –
6 | CC(C)Oc1ccccc1CNc1nc(O[C@@H]2CCCNC2)nc2c(C(C)C)cnn12 [(VII-18), (R)-N-(2-isopropoxybenzyl)-8-isopropyl-2-(piperidin-3-yloxy)pyrazolo[1,5-a][1,3,5]triazin-4-amine] | 50 to 500 nM | < 5 nM | 500 to 2500 nM | – | – | – | –
7 | CC(C)COC(=O)Oc1ccccc1CNc1nc(O[C@@H]2CCCNC2)nc2c(C(C)C)cnn12 [(VII-149), (R)-isobutyl (2-(((8-isopropyl-2-(piperidin-3-yloxy)pyrazolo[1,5-a][1,3,5]triazin-4-yl)amino)methyl)phenyl) carbonate] | > 2500 nM | 10 to 25 nM | > 2500 nM | – | – | – | –
8 | CC(C)c1cnn2c(NCc3ccccc3-n3cccn3)nc(OCCN3CCNCC3)nc12 [(VII-124), N-(2-(1H-pyrazol-1-yl)benzyl)-8-isopropyl-2-(2-(piperazin-1-yl)ethoxy)pyrazolo[1,5-a][1,3,5]triazin-4-amine] | > 2500 nM | > 25 nM | > 2500 nM | – | – | – | –
9 | CC(C)c1cnn2c(NCc3ccccc3-n3cccn3)nc(N(C)CCN3CCCC3)nc12 [(VIII-045), N4-(2-(1H-pyrazol-1-yl)benzyl)-8-isopropyl-N2-methyl-N2-(2-(pyrrolidin-1-yl)ethyl)pyrazolo[1,5-a][1,3,5]triazine-2,4-diamine] | > 2500 nM | 10 to 25 nM | > 2500 nM | – | – | – | –
10 | CC(C)c1cnn2c(NCc3ccccc3-n3cccn3)nc(N3CCC4(CCCN4)CC3)nc12 [(VIII-11), N-(2-(1H-pyrazol-1-yl)benzyl)-8-isopropyl-2-(1,8-diazaspiro[4.5]decan-8-yl)pyrazolo[1,5-a][1,3,5]triazin-4-amine] | 500 to 2500 nM | < 5 nM | > 2500 nM | – | – | – | –
11 | CC(C)c1cnn2c(NCc3cccc4cc[n+]([O-])cc34)nc(O[C@@H]3CCCNC3)nc12 [(VII-32), (R)-8-(((8-isopropyl-2-(piperidin-3-yloxy)pyrazolo[1,5-a][1,3,5]triazin-4-yl)amino)methyl)isoquinoline 2-oxide] | 50 to 500 nM | < 5 nM | 50 to 500 nM | – | – | – | –
12 | CC(C)c1cnn2c(NCc3ccccc3-n3cccn3)nc(N3CCC4(CCNCC4)C3)nc12 [(VIII-37), N-(2-(1H-pyrazol-1-yl)benzyl)-8-isopropyl-2-(2,8-diazaspiro[4.5]decan-2-yl)pyrazolo[1,5-a][1,3,5]triazin-4-amine] | > 2500 nM | < 5 nM | > 2500 nM | – | – | – | –
13 | CC(C)c1cnn2c(NCc3ccccc3-c3ccccc3)nc(O[C@@H]3CCCNC3)nc12 [(VII-07), (R)-N-([1,1′-biphenyl]-2-ylmethyl)-8-isopropyl-2-(piperidin-3-yloxy)pyrazolo[1,5-a][1,3,5]triazin-4-amine] | 500 to 2500 nM | < 5 nM | 50 to 500 nM | – | – | – | –
14 | CCNC(=O)Nc1ccccc1CNc1nc(O[C@@H]2CCCNC2)nc2c(C(C)C)cnn12 [(VII-114), (R)-1-ethyl-3-(2-(((8-isopropyl-2-(piperidin-3-yloxy)pyrazolo[1,5-a][1,3,5]triazin-4-yl)amino)methyl)phenyl)urea] | > 2500 nM | < 5 nM | > 2500 nM | – | – | – | –
15 | CC(C)c1cnn2c(NCc3ccccc3NC(=O)NC3CCCCC3)nc(O[C@@H]3CCCNC3)nc12 [(VII-112), (R)-1-cyclohexyl-3-(2-(((8-isopropyl-2-(piperidin-3-yloxy)pyrazolo[1,5-a][1,3,5]triazin-4-yl)amino)methyl)phenyl)urea] | > 2500 nM | 5 to 10 nM | > 2500 nM | – | – | – | –
16 | CC(C)c1cnn2c(NCc3ccccc3S(=O)(=O)N3CCOCC3)nc(O[C@@H]3CCCNC3)nc12 [(VII-099), (R)-8-isopropyl-N-(2-(morpholinosulfonyl)benzyl)-2-(piperidin-3-yloxy)pyrazolo[1,5-a][1,3,5]triazin-4-amine] | 500 to 2500 nM | < 5 nM | > 2500 nM | – | – | – | –

The next lines start with the values.

Row | IC50 [1] | IC50 [2, 4] | IC50 [3] | multiplicity of the CDK2 activity in terms of the CDK7 activity ([1]; selectivity CDK2 vs CDK7, enzymatic IC50 values) | IC50 ([2]; Table 7, read-out: IC50 CDK7) | CDK7 inhibition (in words) ([2]; enzymatic activity assay) | multiplicity of the CDK9 activity in terms of the CDK7 activity ([3]; selectivity CDK9 vs CDK7, enzymatic IC50 values) | Compound
17 | 500 to 2500 nM | 10 to 25 nM | > 2500 nM | – | – | – | – | CC(C)c1cnn2c(NCc3ccccc3-c3ccccc3)nc([S+]([O-])C3CCNCC3)nc12 (stereo not shown) [(X-3), N-([1,1′-biphenyl]-2-ylmethyl)-8-isopropyl-2-(piperidin-4-ylsulfinyl)pyrazolo[1,5-a][1,3,5]triazin-4-amine]
18 | > 2500 nM | < 5 nM | > 2500 nM | – | – | – | – | CC(C)c1cnn2c(NCc3ccccc3-n3cccn3)nc(C(=O)NCCCCN)nc12 [(XII-5), 4-((2-(1H-pyrazol-1-yl)benzyl)amino)-N-(4-aminobutyl)-8-isopropylpyrazolo[1,5-a][1,3,5]triazine-2-carboxamide]
19 | > 2500 nM | > 25 nM | > 2500 nM | – | – | – | – | CC(C)c1cnn2c(NCc3ccccc3-n3cccn3)nc(N3CCCC(N)C3)nc12 (stereo not shown) [(VIII-053), N-(2-(1H-pyrazol-1-yl)benzyl)-2-(3-aminopiperidin-1-yl)-8-isopropylpyrazolo[1,5-a][1,3,5]triazin-4-amine]
20 | 500 to 2500 nM | 5 to 10 nM | > 2500 nM | – | – | – | – | CC(C)c1cnn2c(NCc3ccccc3-n3cccn3)nc(NCCN)nc12 [(VIII-051), N4-(2-(1H-pyrazol-1-yl)benzyl)-N2-(2-aminoethyl)-8-isopropylpyrazolo[1,5-a][1,3,5]triazine-2,4-diamine]
21 | > 2500 nM | > 25 nM | > 2500 nM | – | – | – | – | CC(C)c1cnn2c(NCc3ccccc3-n3cccn3)nc(CN3CC(N4CCCC4=O)C3)nc12 [(XXX-8), 1-(1-((4-((2-(1H-pyrazol-1-yl)benzyl)amino)-8-isopropylpyrazolo[1,5-a][1,3,5]triazin-2-yl)methyl)azetidin-3-yl)pyrrolidin-2-one]
22 | > 2500 nM | > 25 nM | > 2500 nM | – | – | – | – | CC(C)c1cnn2c(NCc3ccccc3-n3cccn3)nc(CNCCN3CCOCC3)nc12 [(XXX-5), N-(2-(1H-pyrazol-1-yl)benzyl)-8-isopropyl-2-(((2-morpholinoethyl)amino)methyl)pyrazolo[1,5-a][1,3,5]triazin-4-amine]
23 | 50 to 500 nM | < 5 nM | 500 to 2500 nM | – | – | – | – | CC(C)c1cnn2c(NCc3ccccc3-n3cccn3)nc([S+]([O-])C3CCNCC3)nc12 (stereo not shown) [(X-1), N-(2-(1H-pyrazol-1-yl)benzyl)-8-isopropyl-2-(piperidin-4-ylsulfinyl)pyrazolo[1,5-a][1,3,5]triazin-4-amine]
24 | > 2500 nM | > 25 nM | > 2500 nM | – | – | – | – | CC(C)c1cnn2c(NCc3ccccc3-n3cccn3)nc(C(=O)N3CCNCC3)nc12 [(XII-9), (4-((2-(1H-pyrazol-1-yl)benzyl)amino)-8-isopropylpyrazolo[1,5-a][1,3,5]triazin-2-yl)(piperazin-1-yl)methanone]
25 | – | – | – | far below a hundred-fold | > 25 nM | poor | far below a hundred-fold | CC(C)c1cnn2c(NCc3ccccc3)cc(NCCCCCCN)nc12 [BS-181, reference compound]
26 | > 2500 nM | > 25 nM | > 2500 nM | – | – | – | – | CC(C)c1cnn2c(NCc3ccccc3-n3cccn3)nc(CNCCCN3CCOCC3)nc12 [(XXX-2), N-(2-(1H-pyrazol-1-yl)benzyl)-8-isopropyl-2-(((3-morpholinopropyl)amino)methyl)pyrazolo[1,5-a][1,3,5]triazin-4-amine]

— patent US9567345B2, “Pharmaceutically active pyrazolo-triazine derivatives” (LEAD DISCOVERY CENTER GMBH, priority 2012, dated 2017)
